Assay results as given in patent US20230135152A1 (ACURASTEM INCORPORATED, priority 2020, published 2023).

Experiments:
PIKFYVE [1] = target: T1, PIKFYVE (Homo sapiens, UniProt Q9Y2I7); assay: PIKFYVE assay (luciferase ADP-Glo kinase assay, Promega); assay type: biochemical
Method in brief: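 ADP generated in the kinase reaction was detected by ADP-Glo luminescence (luciferase).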

PIKFYVE [2] = target: T1, PIKFYVE; assay: Cell-based Pikfyve inhibition activity assay (EEA1 staining, mean vesicle size in BJ fibroblast cells); settings: Table 4, 4 hours treatment, 3 μM Apilimod = 100% inhibition
Method in brief: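 BJ fibroblasts treated 4 h at 37° C with eleven 3-fold doses (0.03-3000 nM), then fixed and stained for EEA1. Confocal images (20×, 16 tiles/well) analysed for mean vesicle size. Normalised to 0.5% DMSO (0%) and 3 μM apilimod (100%); dose-response fitted with variable slope.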

T1 sequence (Q9Y2I7 whole entry): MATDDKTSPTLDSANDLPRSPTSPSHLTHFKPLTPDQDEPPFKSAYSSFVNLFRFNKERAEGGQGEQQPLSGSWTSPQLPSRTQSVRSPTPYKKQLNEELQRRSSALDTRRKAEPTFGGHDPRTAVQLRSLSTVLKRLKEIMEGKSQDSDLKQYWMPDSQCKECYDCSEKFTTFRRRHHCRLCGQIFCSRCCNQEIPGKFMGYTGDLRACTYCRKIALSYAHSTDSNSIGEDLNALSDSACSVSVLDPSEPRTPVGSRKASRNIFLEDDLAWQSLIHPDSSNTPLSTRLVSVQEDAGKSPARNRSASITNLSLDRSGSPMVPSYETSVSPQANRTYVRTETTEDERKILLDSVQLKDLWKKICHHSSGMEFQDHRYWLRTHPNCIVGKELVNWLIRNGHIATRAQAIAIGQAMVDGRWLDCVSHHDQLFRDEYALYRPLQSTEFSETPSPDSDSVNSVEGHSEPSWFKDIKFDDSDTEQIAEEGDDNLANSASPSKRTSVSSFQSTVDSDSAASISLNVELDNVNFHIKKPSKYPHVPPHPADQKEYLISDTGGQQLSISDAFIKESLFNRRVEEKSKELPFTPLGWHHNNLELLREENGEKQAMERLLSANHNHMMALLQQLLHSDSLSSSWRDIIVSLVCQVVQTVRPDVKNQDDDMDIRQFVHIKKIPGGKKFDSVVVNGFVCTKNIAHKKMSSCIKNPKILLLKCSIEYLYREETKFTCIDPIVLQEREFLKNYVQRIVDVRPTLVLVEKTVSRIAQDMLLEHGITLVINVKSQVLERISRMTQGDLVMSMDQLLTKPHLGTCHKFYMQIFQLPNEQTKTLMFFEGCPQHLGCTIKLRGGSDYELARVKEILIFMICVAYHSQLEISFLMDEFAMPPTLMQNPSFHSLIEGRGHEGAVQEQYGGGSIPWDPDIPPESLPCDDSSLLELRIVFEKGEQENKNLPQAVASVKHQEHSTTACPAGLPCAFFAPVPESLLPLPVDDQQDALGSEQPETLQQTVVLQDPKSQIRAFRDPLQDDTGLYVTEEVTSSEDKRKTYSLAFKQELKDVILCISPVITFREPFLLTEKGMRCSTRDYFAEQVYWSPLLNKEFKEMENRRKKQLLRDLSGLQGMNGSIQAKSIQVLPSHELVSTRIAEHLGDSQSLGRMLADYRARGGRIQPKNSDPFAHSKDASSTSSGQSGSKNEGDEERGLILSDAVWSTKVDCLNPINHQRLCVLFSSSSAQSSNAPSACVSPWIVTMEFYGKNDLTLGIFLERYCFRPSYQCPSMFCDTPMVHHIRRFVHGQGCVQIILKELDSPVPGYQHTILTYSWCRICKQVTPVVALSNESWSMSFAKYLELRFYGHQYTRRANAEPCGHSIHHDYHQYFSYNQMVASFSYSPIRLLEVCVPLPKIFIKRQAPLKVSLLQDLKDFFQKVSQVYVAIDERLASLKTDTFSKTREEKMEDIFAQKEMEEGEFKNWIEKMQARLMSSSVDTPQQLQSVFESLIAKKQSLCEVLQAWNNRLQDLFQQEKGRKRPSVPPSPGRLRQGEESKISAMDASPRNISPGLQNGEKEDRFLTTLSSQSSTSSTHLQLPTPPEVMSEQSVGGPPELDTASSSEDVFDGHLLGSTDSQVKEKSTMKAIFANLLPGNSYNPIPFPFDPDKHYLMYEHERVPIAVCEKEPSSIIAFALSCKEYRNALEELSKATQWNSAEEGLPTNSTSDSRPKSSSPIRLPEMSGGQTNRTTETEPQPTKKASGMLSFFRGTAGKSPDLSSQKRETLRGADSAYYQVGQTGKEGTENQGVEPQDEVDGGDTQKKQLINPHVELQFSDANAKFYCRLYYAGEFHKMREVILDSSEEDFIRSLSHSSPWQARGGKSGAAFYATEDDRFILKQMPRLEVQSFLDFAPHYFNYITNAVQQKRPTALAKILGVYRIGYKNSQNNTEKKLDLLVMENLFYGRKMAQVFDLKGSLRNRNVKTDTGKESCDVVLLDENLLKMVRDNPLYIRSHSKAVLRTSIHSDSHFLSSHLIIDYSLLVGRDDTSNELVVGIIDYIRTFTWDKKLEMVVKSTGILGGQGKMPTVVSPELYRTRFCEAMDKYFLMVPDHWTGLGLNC

| Compound | IC50 (PIKFYVE [1]; Table 3) [nM] | EC50 (PIKFYVE [2]) [nM] | IC50 (PIKFYVE [1]; Table 2) [nM] |
| --- | --- | --- | --- |
| Cn1cc(CCOc2nc(N3CCOCC3)cc(-n3ccc(-c4ccncc4)n3)n2)cn1 [Compound 191, 4-(2-(2-(1-methyl-1H-pyrazol-4-yl)ethoxy)-6-(3-(pyridin-4-yl)-1H-pyrazol-1-yl)pyrimidin-4-yl)morpholine] | 10 to 100 | > 5000 | – |
| CO[C@@H](CO)c1nc(N2CCOCC2)cc(-n2ccc(-c3cccc4[nH]ccc34)n2)n1 [Compound 269, (R)-2-(4-(3-(1H-indol-4-yl)-1H-pyrazol-1-yl)-6-morpholinopyrimidin-2-yl)-2-methoxyethan-1-ol] | 10 to 100 | 500 to 5000 | – |
| Cc1cccc(-c2cc(CN3CCOCC3)n(-c3cc(N4CCOCC4)nc(OCCc4cnn(C)c4)n3)n2)c1 [Compound 235, 4-(2-(2-(1-methyl-1H-pyrazol-4-yl)ethoxy)-6-(5-(morpholinomethyl)-3-(m-tolyl)-1H-pyrazol-1-yl)pyrimidin-4-yl)morpholine] | < 3 | 20 to 100 | – |
| Cc1cccc(-c2ccn(-c3cc(N4CCOCC4)nc(/C=C/c4cnn(C)c4)n3)n2)c1 [Compound 304, (E)-4-(2-(2-(1-methyl-1H-pyrazol-4-yl)vinyl)-6-(3-(m-tolyl)-1H-pyrazol-1-yl)pyrimidin-4-yl)morpholine] | 3 to 10 | 20 to 100 | – |
| Cc1cccc(-c2ccn(-c3cc(N4CCOCC4)c4[nH]ccc4n3)n2)c1 [Compound 241, 4-(5-(3-(m-tolyl)-1H-pyrazol-1-yl)-1H-pyrrolo[3,2-b]pyridin-7-yl)morpholine] | 3 to 10 | 500 to 5000 | – |
| Cc1cc(-c2cccc3c2OCCN3)nn1-c1cc(N2CCOCC2)nc(OCCc2cnn(C)c2)n1 [Compound 245, 8-(5-methyl-1-(2-(2-(1-methyl-1H-pyrazol-4-yl)ethoxy)-6-morpholinopyrimidin-4-yl)-1H-pyrazol-3-yl)-3,4-dihydro-2H-benzo[b][1,4]oxazine] | 10 to 100 | > 5000 | – |
| Cc1cccc(-c2ccn(-c3cc(N4CCOCC4)nc(C(O)CC#N)n3)n2)c1 (stereo not shown) [Compound 76, 3-hydroxy-3-(4-morpholino-6-(3-(m-tolyl)-1H-pyrazol-1-yl)pyrimidin-2-yl)propanenitrile] | – | 20 to 100 | < 5 |
| Cc1cccc(-c2ccn(-c3cc(N4CCOCC4)nc(OCCc4ccnn4C)n3)n2)c1 [Compound 55, 4-(2-(2-(1-methyl-1H-pyrazol-5-yl)ethoxy)-6-(3-(m-tolyl)-1H-pyrazol-1-yl)pyrimidin-4-yl)morpholine] | – | 20 to 100 | < 5 |
| COc1cccc(-c2ccn(-c3cc(N4CCOCC4)nc([C@@H](CO)OC)n3)n2)c1 [Compound 262, (S)-2-methoxy-2-(4-(3-(3-methoxyphenyl)-1H-pyrazol-1-yl)-6-morpholinopyrimidin-2-yl)ethan-1-ol] | 10 to 100 | 100 to 500 | – |
| Cn1cc(CCOc2nc(N3CCOCC3)cc(-n3ccc(C(=O)N4CCCCC4)n3)n2)cn1 [Compound 172, (1-(2-(2-(1-methyl-1H-pyrazol-4-yl)ethoxy)-6-morpholinopyrimidin-4-yl)-1H-pyrazol-3-yl)(piperidin-1-yl)methanone] | 100 to 5000 | > 5000 | – |
| Cc1cccc(-c2ccn(-c3cc(N4CCOCC4)nc([C@@H]4CCOC4)n3)n2)c1 (single isomer, unassigned) [Compound 330] | 3 to 10 | > 5000 | – |
| Cc1cccc(-c2ccn(-c3cc(N4CCOCC4)nc(OCCc4cn[nH]c4)n3)n2)c1 [Compound 214, 4-(2-(2-(1H-pyrazol-4-yl)ethoxy)-6-(3-(m-tolyl)-1H-pyrazol-1-yl)pyrimidin-4-yl)morpholine] | < 3 | < 20 | – |
| CCO[C@@H](CO)c1nc(N2CCOCC2)cc(-n2ccc(-c3cccc(C)c3)n2)n1 (single isomer, unassigned) [Compound 312] | 3 to 10 | 100 to 500 | – |
| Cc1cccc(Oc2ccn(-c3cc(N4CCOCC4)nc(OCCc4cnn(C)c4)n3)n2)c1 [Compound 346] | < 3 | 20 to 100 | – |
| COCc1cccc(-c2ccn(-c3cc(N4CCOCC4)nc(OCCc4cnn(C)c4)n3)n2)c1 [Compound 200, 4-(6-(3-(3-(methoxymethyl)phenyl)-1H-pyrazol-1-yl)-2-(2-(1-methyl-1H-pyrazol-4-yl)ethoxy)pyrimidin-4-yl)morpholine] | < 3 | < 20 | – |
| CNc1nc(N2CCOCC2)cc(-n2nc(-c3ccccc3)cc2C)n1 [Compound 85] | – | 500 to 5000 | 101 to 1000 |

| Compound | IC50 (PIKFYVE [1]; Table 3) [nM] | EC50 (PIKFYVE [2]) [nM] | IC50 (PIKFYVE [1]; Table 2) [nM] |
| --- | --- | --- | --- |
| Cc1cccc(-c2ccn(-c3cc(N4CCOCC4)nc(OCc4ccn(CCN(C)C)n4)n3)n2)c1 [Compound 238, N,N-dimethyl-2-(3-(((4-morpholino-6-(3-(m-tolyl)-1H-pyrazol-1-yl)pyrimidin-2-yl)oxy)methyl)-1H-pyrazol-1-yl)ethan-1-amine] | < 3 | 100 to 500 | – |
| Cc1cccc(-c2ccn(-c3cc(N4CCOCC4)nc(OCCn4cnc(CO)c4)n3)n2)c1 [Compound 116, (1-(2-((4-morpholino-6-(3-(m-tolyl)-1H-pyrazol-1-yl)pyrimidin-2-yl)oxy)ethyl)-1H-imidazol-4-yl)methanol] | < 3 | 100 to 500 | – |
| Cc1cccc(-c2ccn(-c3cc(N4CCOCC4)nc(OC[C@@H](O)c4ccccc4)n3)n2)c1 (single isomer, unassigned) [Compound 57] | – | 20 to 100 | < 5 |
| CO[C@@H](CO)c1nc(N2CCOCC2)cc(-n2ccc(-c3c[nH]c4ncccc34)n2)n1 [Compound 293, (R)-2-(4-(3-(1H-pyrrolo[2,3-b]pyridin-3-yl)-1H-pyrazol-1-yl)-6-morpholinopyrimidin-2-yl)-2-methoxyethan-1-ol] | 10 to 100 | 100 to 500 | – |
| Cn1cc(CCOc2nc(N3CCOCC3)cc(-n3ccc(OCc4ccccc4)n3)n2)cn1 [Compound 62, 4-(6-(3-(benzyloxy)-1H-pyrazol-1-yl)-2-(2-(1-methyl-1H-pyrazol-4-yl)ethoxy)pyrimidin-4-yl)morpholine] | – | 20 to 100 | < 5 |
| COC(CO)(c1ccccc1)c1nc(N2CCOCC2)cc(-n2ccc(-c3cccc(C)c3)n2)n1 (stereo not shown) [Compound 228, 2-methoxy-2-(4-morpholino-6-(3-(m-tolyl)-1H-pyrazol-1-yl)pyrimidin-2-yl)-2-phenylethan-1-ol] | < 3 | 100 to 500 | – |
| Cc1cccc(-c2ccn(-c3cc(N4CCOCC4)nc(OC4COC4)n3)n2)c1 [Compound 110, 4-(2-(oxetan-3-yloxy)-6-(3-(m-tolyl)-1H-pyrazol-1-yl)pyrimidin-4-yl)morpholine] | < 3 | 100 to 500 | – |
| Cc1cccc(-c2ccn(-c3cc(N4CCOCC4)nc(OCCn4cnc(CN(C)C)c4)n3)n2)c1 [Compound 117, N,N-dimethyl-1-(1-(2-((4-morpholino-6-(3-(m-tolyl)-1H-pyrazol-1-yl)pyrimidin-2-yl)oxy)ethyl)-1H-imidazol-4-yl)methanamine] | 10 to 100 | 500 to 5000 | – |
| Cn1cc(CCOc2nc(N3CCOCC3)cc(-n3ccc(-c4cccc(C#N)c4)n3)n2)cn1 [Compound 126, 3-(1-(2-(2-(1-methyl-1H-pyrazol-4-yl)ethoxy)-6-morpholino-pyrimidin-4-yl)-1H-pyrazol-3-yl)benzonitrile] | 10 to 100 | 100 to 500 | – |
| CO[C@H](CO)c1nc(N2CCOCC2)cc(-n2nc(-c3csc4ccccc34)cc2C)n1 [Compound 278, (S)-2-(4-(3-(benzo[b]thiophen-3-yl)-5-methyl-1H-pyrazol-1-yl)-6-morpholinopyrimidin-2-yl)-2-methoxyethan-1-ol] | < 3 | 500 to 5000 | – |
| CO[C@H](CO)c1nc(N2CCO[C@@H](C)C2)cc(-n2ccc(-c3cccc(C)c3)n2)n1 (single isomer, unassigned) [Compound 305] | 10 to 100 | 500 to 5000 | – |
| Cc1cccc(-c2ccn(-c3cc(N4CCOCC4)nc(-n4cnc(CCO)c4)n3)n2)c1 [Compound 339, 2-(1-(4-morpholino-6-(3-(m-tolyl)-1H-pyrazol-1-yl)pyrimidin-2-yl)-1H-imidazol-4-yl)ethan-1-ol] | 3 to 10 | 100 to 500 | – |
| Cn1cc(CCOc2nc(N3CCOCC3)cc(-n3ccc(-c4cn(C)c5ccccc45)n3)n2)cn1 [Compound 232, 4-(6-(3-(1-methyl-1H-indol-3-yl)-1H-pyrazol-1-yl)-2-(2-(1-methyl-1H-pyrazol-4-yl)ethoxy)pyrimidin-4-yl)morpholine] | 100 to 5000 | > 5000 | – |
| Cc1cc(-c2ccccc2)nn1-c1cc(N2CCOCC2)nc(N)n1 [Compound 202, 4-(5-methyl-3-phenyl-1H-pyrazol-1-yl)-6-morpholinopyrimidin-2-amine] | 100 to 5000 | 500 to 5000 | – |
| Cc1cc(-c2c[nH]c3ccccc23)nn1-c1cc(N2CCOCC2)nc(C2COCCO2)n1 (single isomer, unassigned) [Compound 345] | < 3 | < 20 | – |
| Cc1cccc(-c2ccn(-c3cc(N4CCOCC4)ncn3)n2)c1 [Compound 60, 4-(6-(3-(m-tolyl)-1H-pyrazol-1-yl)pyrimidin-4-yl)morpholine] | – | 500 to 5000 | 101 to 1000 |
